In US12522597B2, “Methods and compositions for modulating splicing” (Skyhawk Therapeutics, Inc., priority 2019, dated 2026):
pEC50: −log10 of the molar value. Where two headings read alike, the source gives them in different places.

Assays:
MDR1 = assay: MDCK-MDR1 permeability assay (BBB penetration potential); format: in vitro ADME; settings: dog; for efflux ratio at 120 min, 5 μM: MDCK-MDR1, pH 7.4, MDCK-MDR1: Efflux; for Papp A→B at 120 min, 5 μM: MDCK-MDR1, pH 7.4, MDCK-MDR1: Papp A-B; for Papp B→A at 120 min, 5 μM: MDCK-MDR1, pH 7.4, MDCK-MDR1: Papp B-A
Experimental: (§1) Each determination is performed in duplicate. […] Analytical conditions are outlined below.

[1] = tested on: MDR1-MDCK cell monolayers; assay: as above; format: in vitro ADME; settings: dog, MDCK-MDR1, 120 min, 5 μM, pH 7.4
Experimental: as §1

mHTT protein = mHTT protein assay (2B7-MW1, Mesoscale Discovery); format: cell-based, human; settings: GM04724 (CAG 70/20) Huntington's disease patient lymphoblast cells, 48 hours, 2B7-MW1 MSD; read-out: HTT Potency - Protein EC50 mHTT (average)
Summary of the method: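 GM04724 Huntington's patient lymphoblasts (CAG 70/20) were treated for 48 h at 10 μM to 0.6 nM. mHTT was quantified by 2B7-MW1 MSD immunoassay, whose signal depends on polyQ expansion and HTT fragment size. Viability was run on a parallel plate by CellTiter-Glo.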

[2] = tested on: Huntingtin (HTT) transcripts; assay: Quantitative splicing assay (HTT), qPCR; format: cell-based; settings: Homo sapiens, GM04724 (CAG 70/20) Huntington's disease patient lymphoblasts, 24 h
Summary of the method: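 GM04724 HD patient lymphoblasts (CAG 70/20) dosed 24 h with compound from 2.5 uM to 0.15 nM (0.1% DMSO). Lysates converted to cDNA; TaqMan qPCR measured compound-induced inclusion of a cryptic exon in HTT intron 49.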

[3] = qPCR HTTex49_50, read-out: HTT Potency - Splicing: E49-50 EC50 (average)
[4] = qPCR cryptic exon 49b inclusion, read-out: HTT Potency - Splicing: E49b EC50 (average)

SMILES | efflux ratio at 120 min, 5 μM (MDR1) | Papp A→B at 120 min, 5 μM (MDR1) [×10⁻⁶ cm/s] | Papp B→A at 120 min, 5 μM (MDR1) [×10⁻⁶ cm/s] | MDCK-MDR1: % Recov A-B [1] [%] | MDCK-MDR1: % Recov B-A [1] [%] | pEC50 (mHTT protein) | pEC50 [2, 3] | pEC50 [2, 4]
Cn1cc(-c2ccc(-c3ccc(O[C@@H]4C[C@@H]5CCC[C@@H](N5)[C@H]4F)nn3)c(O)c2)cn1 (single isomer, unassigned) [121-ENT2] | 3 | 13.5 | 45.9 | 75 | 90 | 5.00 to 6.30 | 5.00 to 6.30 | 5.00 to 6.30
Oc1cc(-c2nncs2)ccc1-c1ccc(O[C@H]2C[C@@H]3CCC[C@@H](N3)[C@H]2F)nn1 (single isomer, unassigned) [116-ENT2] | 5 | 11.3 | 61.4 | 90 | 95 | 7.30 to 7.80 | 6.30 to 7.00 | 6.30 to 7.00
Oc1cc(-c2cnccn2)ccc1-c1ccc(O[C@H]2C[C@@H]3CCC[C@@H](N3)[C@H]2F)nn1 (single isomer, unassigned) [79-ENT2] | 3 | 9.52 | 25.8 | 74 | 82 | 6.30 to 7.00 | 7.00 to 7.29 | 7.00 to 7.29
Oc1cc(-c2cn[nH]c2)ccc1-c1ccc(O[C@@H]2C[C@H]3CC[C@H](N3)[C@@H]2F)nn1 (single isomer, unassigned) [42-ENT2] | 12 | 3.2 | 38.5 | 85 | 86 | 7.82 to 11.00 | 7.82 to 11.00 | 7.82 to 11.00
O=c1cc(-c2ccc(-c3ccc(O[C@@H]4C[C@H]5CCC[C@H](N5)[C@@H]4F)nn3)c(O)c2)cc[nH]1 (single isomer, unassigned) [53-ENT1] | 103 | 0.22 | 22.2 | 91 | 90 | 6.30 to 7.00 | 6.30 to 7.00 | 6.30 to 7.00
Oc1cc(-c2cn[nH]c2)ccc1-c1ccc(O[C@H]2C[C@@H]3CCC[C@@H](N3)[C@H]2F)nn1 (single isomer, unassigned) [40-ENT1] | 19 | 2.67 | 49.9 | 83 | 85 | 7.82 to 11.00 | 7.82 to 11.00 | 7.82 to 11.00
COc1cc(-c2ccc(-c3ccc(O[C@H]4C[C@]5(C)CC[C@@](C)(N5)[C@H]4F)nn3)c(O)c2)cnn1 (single isomer, unassigned) [157-ENT2] | 5 | 6.79 | 36.1 | 82 | 81 | 7.30 to 7.80 | 7.30 to 7.80 | 7.30 to 7.80
Cc1nc(-c2ccc(-c3ccc(O[C@H]4C[C@@H]5CCC[C@@H](N5)[C@H]4F)nn3)c(O)c2)cs1 (single isomer, unassigned) [71-ENT1] | 4 | 4.96 | 18.6 | 47 | 60 | 7.30 to 7.80 | 7.30 to 7.80 | 7.30 to 7.80
Cn1cc(-c2ccc(-c3ccc(O[C@@H]4C[C@@]5(C)CC[C@](C)(N5)[C@@H]4F)nn3)c(O)c2)cn1 (single isomer, unassigned) [150-ENT2] | 4 | 9.06 | 38.6 | 78 | 87 | 7.30 to 7.80 | 7.30 to 7.80 | 7.30 to 7.80
Cc1cc(-c2ccc(-c3ccc(O[C@@H]4C[C@H]5CCC[C@H](N5)[C@@H]4F)nn3)c(O)c2)ccn1 (single isomer, unassigned) [88-ENT1] | 3 | 7.03 | 22.1 | 51 | 64 | 7.30 to 7.80 | 7.30 to 7.80 | 7.30 to 7.80
Oc1cc(-c2cn[nH]c2)ccc1-c1ccc(O[C@H]2C[C@@H]3CCC[C@@H](N3)[C@@H]2F)nn1 (single isomer, unassigned) [41-ENT1] | 8 | 4.33 | 34.7 | 71 | 86 | 7.82 to 11.00 | 7.82 to 11.00 | 7.82 to 11.00
Cn1cnc2cc(O)c(-c3ccc(O[C@H]4C[C@]5(C)CCC[C@@](C)(N5)[C@H]4F)nn3)cc2c1=O (single isomer, unassigned) [133-ENT1] | 10 | 4.98 | 52.4 | 81 | 87 | 7.82 to 11.00 | 6.30 to 7.00 | 7.00 to 7.29
COc1cc(-c2ccc(-c3ccc(O[C@@H]4C[C@@]5(C)CC[C@](C)(N5)[C@@H]4F)nn3)c(O)c2)cnn1 (single isomer, unassigned) [157-ENT1] | 6 | 6.28 | 35.7 | 77 | 84 | 7.30 to 7.80 | 7.30 to 7.80 | 7.30 to 7.80
Cn1ccc(-c2ccc(-c3ccc(O[C@H]4C[C@@H]5CCC[C@@H](N5)[C@H]4F)nn3)c(O)c2)n1 (single isomer, unassigned) [68-ENT2] | 4 | 8.23 | 31.6 | 76 | 89 | 6.30 to 7.00 | 7.30 to 7.80 | 7.30 to 7.80
Cn1ccc(-c2ccc(-c3ccc(O[C@@H]4C[C@@]5(C)CCC[C@](C)(N5)[C@@H]4F)nn3)c(O)c2)cc1=O (single isomer, unassigned) [149-ENT2] | 24 | 1.94 | 45.7 | 76 | 73 | 7.30 to 7.80 | 7.30 to 7.80 | 7.30 to 7.80
Oc1cc(-n2cccn2)ccc1-c1ccc(O[C@H]2C[C@@H]3CC[C@@H](N3)[C@H]2F)nn1 (single isomer, unassigned) [35-ENT2] | 4 | 6.25 | 24 | 62 | 68 | 7.00 to 7.29 | 6.30 to 7.00 | 6.30 to 7.00
Cn1cc(-c2ccc(-c3ccc(O[C@@H]4C[C@H]5CCC[C@H](N5)[C@@H]4F)nn3)c(O)c2F)cn1 (single isomer, unassigned) [119-ENT1] | 10 | 3.4 | 33 | 56 | 80 | 7.30 to 7.80 | 7.30 to 7.80 | 7.30 to 7.80
